Experimental data reported in ChEMBL document CHEMBL4251622, “Design, synthesis, and biological evaluation of polo-like kinase 1/eukaryotic elongation factor 2 kinase (PLK1/EEF2K) dual inhibitors for regulating breast cancer cells apoptosis and autophagy” (Eur J Med Chem, 2018).
Active and inactive are the calls of the source. No cut-off for these calls is given here.

Assays:
[1] = tested on: Epidermal growth factor receptor (Homo sapiens), P00533 [L858R]; assay: Inhibition of human partial length EGFR L858R mutant (R669 to V1011 residues) expressed in bacterial expression system assessed as residual activity at 1 uM by Kinomescan method relative to control
[2] = molecular target: Cyclin-dependent kinase 3 (Homo sapiens) (UniProt Q00526); assay: Inhibition of wild-type human full length CDK3 (M1 to H305 residues) expressed in bacterial expression system assessed as residual activity at 1 uM by Kinomescan method relative to control
[3] = tested on: BT-483; assay: Cell cycle arrest in human BT-483 cells assessed as accumulation at G2/M phase at 5 to 10 uM after 24 to 72 hrs; assay type: functional, cell-based
[4] = molecular target: Serine/threonine-protein kinase pim-3 (Homo sapiens) (UniProt Q86V86); assay: Inhibition of wild-type human partial length PIM3 (G16 to A317 residues) expressed in bacterial expression system assessed as residual activity at 1 uM by Kinomescan method relative to control
[5] = molecular target: Receptor-type tyrosine-protein kinase FLT3 (Homo sapiens) (UniProt P36888); assay: Inhibition of wild-type human partial length FLT3 (V592 to Y969 residues) expressed in bacterial expression system assessed as residual activity at 1 uM by Kinomescan method relative to control
[6] = molecular target: Mitogen-activated protein kinase kinase kinase 4 (Homo sapiens) (UniProt Q9Y6R4); assay: Inhibition of wild-type human partial length MAP3K4 (G1319 to E1608 residues) expressed in bacterial expression system assessed as residual activity at 1 uM by Kinomescan method relative to control
[7] = tested on: BT-483; assay: Induction of apoptosis in human BT-483 cells assessed as early apoptotic cells at 5 uM by Annexin V-FITC/propidium iodide staining based flow cytometry (reference value: 2.01%); assay type: functional
[8] = molecular target: Non-receptor tyrosine-protein kinase TYK2 (Homo sapiens) (UniProt P29597); assay: Inhibition of wild-type human partial length TYK2 JH1 catalytic domain (V877 to C1187 residues) expressed in mammalian expression system assessed as residual activity at 1 uM by Kinomescan method relative to control
[9] = molecular target: Platelet-derived growth factor receptor beta (Homo sapiens) (UniProt P09619); assay: Inhibition of wild-type human partial length PDGFRB (V582 to Y1009 residues) expressed in bacterial expression system assessed as residual activity at 1 uM by Kinomescan method relative to control
[10] = molecular target: MAP kinase-interacting serine/threonine-protein kinase 1 (Homo sapiens) (UniProt Q9BUB5); assay: Inhibition of wild-type human full length MKNK1 (M1 to L424 residues) expressed in mammalian expression system assessed as residual activity at 1 uM by Kinomescan method relative to control
[11] = molecular target: Proto-oncogene tyrosine-protein kinase receptor Ret (Homo sapiens) (UniProt P07949); assay: Inhibition of wild-type human partial length RET (E713 to D1014 residues) expressed in bacterial expression system assessed as residual activity at 1 uM by Kinomescan method relative to control
[12] = tested on: BT-483; assay: Effect on total PLK1 protein expression in human BT-483 cells at 5 to 10 uM by Western blot analysis; assay type: ADME, cell-based; settings: bt-483, 10 µM
[13] = tested on: BT-483; assay: Upregulation of Bax protein expression in human BT-483 cells at 5 to 10 uM by Western blot analysis; assay type: functional, cell-based
[14] = molecular target: cAMP-dependent protein kinase catalytic subunit alpha (Homo sapiens) (UniProt P17612); assay: Inhibition of wild-type human partial length PKAC-alpha (G10 to F351 residues) expressed in bacterial expression system assessed as residual activity at 1 uM by Kinomescan method relative to control
[15] = molecular target: Atypical kinase COQ8A, mitochondrial (Homo sapiens) (UniProt Q8NI60); assay: Inhibition of wild-type human […] ADCK3 (M280 to Q647 residues) expressed in bacterial expression system assessed as residual activity at 1 uM by Kinomescan method relative to control
[16] = molecular target: Hepatocyte growth factor receptor (Homo sapiens) (UniProt P08581); assay: Inhibition of wild-type human partial length MET (D1010 to S1367 residues) expressed in bacterial expression system assessed as residual activity at 1 uM by Kinomescan method relative to control
[17] = molecular target: Ribosomal protein S6 kinase alpha-1 (Homo sapiens) (UniProt Q15418); assay: Inhibition of wild-type human partial length N-terminal RSK1 Kinase domain 1 (M1 to E388 residues) expressed in bacterial expression system assessed as residual activity at 1 uM by Kinomescan method relative to control
[18] = tested on: BT-483; assay: Induction of apoptosis in human BT-483 cells assessed as late apoptotic cells at 10 uM by Annexin V-FITC/propidium iodide staining based flow cytometry (reference value: 0.36%); assay type: functional
[19] = molecular target: Serine/threonine-protein kinase ULK1 (Homo sapiens) (UniProt O75385); assay: Inhibition of wild-type human partial length ULK1 (M1 to T309 residues) expressed in mammalian expression system assessed as residual activity at 1 uM by Kinomescan method relative to control
[20] = molecular target: Tyrosine-protein kinase receptor UFO (Homo sapiens) (UniProt P30530); assay: Inhibition of wild-type human partial length AXL (R497 to Y821 residues) expressed in bacterial expression system assessed as residual activity at 1 uM by Kinomescan method relative to control
[21] = tested on: BT-483; assay: Upregulation of cleaved caspase-3 protein expression in human BT-483 cells at 5 to 10 uM by Western blot analysis; assay type: functional, cell-based
[22] = molecular target: RAC-beta serine/threonine-protein kinase (Homo sapiens) (UniProt P31751); assay: Inhibition of wild-type human partial length AKT2 expressed in bacterial expression system assessed as residual activity at 1 uM by Kinomescan method relative to control
[23] = molecular target: Mitogen-activated protein kinase 14 (Homo sapiens) (UniProt Q16539); assay: Inhibition of wild-type human full length p38-alpha (M1 to S360 residues) expressed in bacterial expression system assessed as residual activity at 1 uM by Kinomescan method relative to control
[24] = tested on: ZR-75-1; assay: Cytotoxicity against human ZR-75-1 cells after 24 hrs by MTT assay; assay type: functional, cell-based
[25] = tested on: BT-483; assay: Induction of apoptosis in human BT-483 cells assessed as live cells at 10 uM by Annexin V-FITC/propidium iodide staining based flow cytometry (reference value: 87.5%); assay type: functional
[26] = molecular target: Tyrosine-protein kinase ABL1 (Homo sapiens) (UniProt P00519); assay: Inhibition of wild-type human phosphorylated ABL1 (S229 to K512 residues) expressed in mammalian expression system assessed as residual activity at 1 uM by Kinomescan method relative to control
[27] = tested on: BT-483; assay: Induction of apoptosis in human BT-483 cells assessed as early apoptotic cells at 10 uM by Annexin V-FITC/propidium iodide staining based flow cytometry (reference value: 2.01%); assay type: functional
[28] = molecular target: Cyclin-dependent kinase 7 (Homo sapiens) (UniProt P50613); assay: Inhibition of wild-type human full length CDK7 (M1 to L344 residues) expressed in mammalian expression system assessed as residual activity at 1 uM by Kinomescan method relative to control
[29] = tested on: BT-483; assay: Upregulation of Bad protein expression in human BT-483 cells at 5 to 10 uM by Western blot analysis; assay type: functional, cell-based

Sequence of Proto-oncogene tyrosine-protein kinase receptor Ret (Homo sapiens) (P07949 whole entry, the tested form may be a part): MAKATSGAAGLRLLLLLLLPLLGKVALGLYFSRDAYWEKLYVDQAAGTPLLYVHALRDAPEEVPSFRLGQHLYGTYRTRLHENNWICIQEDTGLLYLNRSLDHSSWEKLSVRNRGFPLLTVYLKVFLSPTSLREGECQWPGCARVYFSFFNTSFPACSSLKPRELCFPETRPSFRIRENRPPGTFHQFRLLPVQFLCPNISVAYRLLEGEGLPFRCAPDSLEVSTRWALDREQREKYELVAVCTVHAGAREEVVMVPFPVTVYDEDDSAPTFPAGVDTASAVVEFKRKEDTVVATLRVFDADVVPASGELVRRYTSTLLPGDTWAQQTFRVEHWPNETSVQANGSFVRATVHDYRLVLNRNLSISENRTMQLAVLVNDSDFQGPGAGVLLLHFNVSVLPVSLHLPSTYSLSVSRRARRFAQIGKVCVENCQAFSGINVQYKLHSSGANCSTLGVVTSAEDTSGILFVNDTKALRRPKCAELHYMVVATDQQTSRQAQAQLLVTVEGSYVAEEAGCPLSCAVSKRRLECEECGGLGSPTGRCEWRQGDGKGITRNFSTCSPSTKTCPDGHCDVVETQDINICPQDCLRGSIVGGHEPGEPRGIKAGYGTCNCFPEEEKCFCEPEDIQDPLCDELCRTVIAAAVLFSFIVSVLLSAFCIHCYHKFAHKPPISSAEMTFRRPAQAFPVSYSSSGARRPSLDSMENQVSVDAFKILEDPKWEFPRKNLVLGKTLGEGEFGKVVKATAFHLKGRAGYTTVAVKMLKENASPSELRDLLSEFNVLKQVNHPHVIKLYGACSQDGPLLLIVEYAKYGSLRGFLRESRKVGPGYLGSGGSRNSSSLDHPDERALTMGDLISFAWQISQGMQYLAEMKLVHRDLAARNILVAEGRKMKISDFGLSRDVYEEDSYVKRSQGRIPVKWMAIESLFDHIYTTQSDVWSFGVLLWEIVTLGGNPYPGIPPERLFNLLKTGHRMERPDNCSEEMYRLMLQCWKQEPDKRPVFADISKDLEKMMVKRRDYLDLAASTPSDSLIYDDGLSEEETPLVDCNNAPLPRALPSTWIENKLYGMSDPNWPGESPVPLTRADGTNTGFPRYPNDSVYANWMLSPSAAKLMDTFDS
Sequence of Mitogen-activated protein kinase 14 (Homo sapiens) (Q16539 whole entry, the tested form may be a part): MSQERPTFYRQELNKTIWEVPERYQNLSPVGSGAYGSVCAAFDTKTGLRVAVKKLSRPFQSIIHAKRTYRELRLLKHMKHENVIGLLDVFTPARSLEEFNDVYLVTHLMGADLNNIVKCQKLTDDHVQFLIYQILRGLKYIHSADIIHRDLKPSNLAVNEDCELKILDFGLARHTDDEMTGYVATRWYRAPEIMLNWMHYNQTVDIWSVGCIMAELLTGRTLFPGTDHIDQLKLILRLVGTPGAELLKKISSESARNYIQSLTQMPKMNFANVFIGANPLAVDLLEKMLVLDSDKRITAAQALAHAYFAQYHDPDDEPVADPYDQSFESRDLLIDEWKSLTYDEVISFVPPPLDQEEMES
Sequence of Hepatocyte growth factor receptor (Homo sapiens) (P08581 whole entry, the tested form may be a part): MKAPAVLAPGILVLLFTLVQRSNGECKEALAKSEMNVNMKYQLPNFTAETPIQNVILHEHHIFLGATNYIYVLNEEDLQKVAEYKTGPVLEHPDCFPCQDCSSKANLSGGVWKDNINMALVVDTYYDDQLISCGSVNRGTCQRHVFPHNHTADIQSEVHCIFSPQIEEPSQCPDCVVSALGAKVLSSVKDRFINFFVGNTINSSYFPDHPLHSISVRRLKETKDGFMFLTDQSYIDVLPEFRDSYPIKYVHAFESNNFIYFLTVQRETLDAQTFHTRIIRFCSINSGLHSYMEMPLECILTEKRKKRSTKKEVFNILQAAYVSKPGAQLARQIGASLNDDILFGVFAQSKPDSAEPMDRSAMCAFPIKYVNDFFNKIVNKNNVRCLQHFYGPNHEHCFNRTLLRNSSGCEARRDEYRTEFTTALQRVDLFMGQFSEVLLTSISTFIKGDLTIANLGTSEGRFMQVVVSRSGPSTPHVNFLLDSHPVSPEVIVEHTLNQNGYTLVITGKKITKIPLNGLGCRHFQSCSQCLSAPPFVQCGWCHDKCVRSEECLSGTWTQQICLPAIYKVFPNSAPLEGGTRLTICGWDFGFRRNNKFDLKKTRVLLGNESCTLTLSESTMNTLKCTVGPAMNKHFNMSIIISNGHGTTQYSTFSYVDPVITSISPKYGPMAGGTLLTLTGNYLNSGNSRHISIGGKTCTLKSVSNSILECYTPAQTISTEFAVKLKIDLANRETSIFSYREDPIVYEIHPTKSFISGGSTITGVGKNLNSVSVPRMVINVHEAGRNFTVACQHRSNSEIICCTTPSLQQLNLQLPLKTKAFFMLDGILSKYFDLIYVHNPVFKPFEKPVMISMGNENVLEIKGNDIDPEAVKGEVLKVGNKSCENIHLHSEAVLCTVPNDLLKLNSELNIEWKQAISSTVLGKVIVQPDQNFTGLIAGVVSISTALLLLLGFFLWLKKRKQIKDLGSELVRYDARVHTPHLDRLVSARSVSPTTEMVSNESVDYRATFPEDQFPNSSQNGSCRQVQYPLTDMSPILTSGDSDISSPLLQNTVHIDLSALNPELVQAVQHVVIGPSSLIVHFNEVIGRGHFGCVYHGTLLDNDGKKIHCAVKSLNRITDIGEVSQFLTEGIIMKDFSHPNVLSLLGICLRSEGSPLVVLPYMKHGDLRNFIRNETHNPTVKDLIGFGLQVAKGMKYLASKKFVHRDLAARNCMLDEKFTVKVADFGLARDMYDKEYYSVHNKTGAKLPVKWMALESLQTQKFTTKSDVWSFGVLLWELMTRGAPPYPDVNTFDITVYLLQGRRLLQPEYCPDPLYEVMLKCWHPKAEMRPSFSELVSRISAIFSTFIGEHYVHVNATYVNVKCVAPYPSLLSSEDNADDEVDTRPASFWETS
Sequence of Tyrosine-protein kinase receptor UFO (Homo sapiens) (P30530 whole entry, the tested form may be a part): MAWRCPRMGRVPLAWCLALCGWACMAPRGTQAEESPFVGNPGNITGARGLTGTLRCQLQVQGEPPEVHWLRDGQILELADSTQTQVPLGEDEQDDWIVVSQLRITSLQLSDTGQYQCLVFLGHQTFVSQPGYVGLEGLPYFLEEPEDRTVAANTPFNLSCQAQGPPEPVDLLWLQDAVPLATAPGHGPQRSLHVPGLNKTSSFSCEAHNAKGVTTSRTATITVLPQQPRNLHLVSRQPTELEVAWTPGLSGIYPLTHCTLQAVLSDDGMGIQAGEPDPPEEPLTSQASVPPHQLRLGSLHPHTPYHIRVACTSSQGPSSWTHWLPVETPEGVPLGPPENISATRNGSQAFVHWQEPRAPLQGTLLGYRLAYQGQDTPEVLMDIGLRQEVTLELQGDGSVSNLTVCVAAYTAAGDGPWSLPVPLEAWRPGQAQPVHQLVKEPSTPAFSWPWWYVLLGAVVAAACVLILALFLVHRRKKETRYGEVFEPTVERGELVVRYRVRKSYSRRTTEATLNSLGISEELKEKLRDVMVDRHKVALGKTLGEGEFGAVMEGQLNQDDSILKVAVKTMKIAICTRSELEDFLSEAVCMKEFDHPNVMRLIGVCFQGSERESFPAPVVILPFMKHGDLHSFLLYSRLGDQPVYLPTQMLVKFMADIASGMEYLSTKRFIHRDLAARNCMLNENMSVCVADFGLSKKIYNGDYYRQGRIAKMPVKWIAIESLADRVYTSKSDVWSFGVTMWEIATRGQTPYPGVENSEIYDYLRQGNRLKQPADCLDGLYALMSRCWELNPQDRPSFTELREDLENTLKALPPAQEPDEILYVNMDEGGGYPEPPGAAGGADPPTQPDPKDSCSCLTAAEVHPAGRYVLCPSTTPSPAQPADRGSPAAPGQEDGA
Sequence of Atypical kinase COQ8A, mitochondrial (Homo sapiens) (Q8NI60 163-647 limits assumed): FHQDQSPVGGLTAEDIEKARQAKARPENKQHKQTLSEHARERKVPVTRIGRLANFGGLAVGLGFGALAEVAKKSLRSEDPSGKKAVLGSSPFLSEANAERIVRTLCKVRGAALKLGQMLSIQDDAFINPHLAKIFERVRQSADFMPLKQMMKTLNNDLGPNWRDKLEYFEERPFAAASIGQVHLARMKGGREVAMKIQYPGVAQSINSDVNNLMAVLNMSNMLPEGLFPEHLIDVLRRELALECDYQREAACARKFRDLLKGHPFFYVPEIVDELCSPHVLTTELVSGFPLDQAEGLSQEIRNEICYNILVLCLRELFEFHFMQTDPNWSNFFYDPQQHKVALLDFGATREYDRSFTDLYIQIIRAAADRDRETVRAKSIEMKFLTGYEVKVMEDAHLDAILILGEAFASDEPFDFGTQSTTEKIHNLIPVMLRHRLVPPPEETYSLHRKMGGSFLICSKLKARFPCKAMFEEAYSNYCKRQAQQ
Sequence of Cyclin-dependent kinase 3 (Homo sapiens) (Q00526 whole entry, looked up, the tested form may be a part): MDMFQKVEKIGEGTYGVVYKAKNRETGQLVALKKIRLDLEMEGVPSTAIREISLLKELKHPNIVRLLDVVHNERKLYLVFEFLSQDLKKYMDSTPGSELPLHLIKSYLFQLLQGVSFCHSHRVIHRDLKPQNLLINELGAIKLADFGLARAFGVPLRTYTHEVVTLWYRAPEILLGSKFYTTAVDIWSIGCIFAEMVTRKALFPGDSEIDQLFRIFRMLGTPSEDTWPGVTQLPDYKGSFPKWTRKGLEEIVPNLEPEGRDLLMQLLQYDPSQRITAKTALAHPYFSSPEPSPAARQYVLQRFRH

In the case of `CCNc1cc(-c2ccc(NC(=O)Nc3cccc(Cl)c3)cc2C(F)(F)F)ccn1`, the Activity [1] was 99%, the Activity [2] was 87% and the Activity [3] was “Active”. The Activity [4] was 100%, the Activity [5] was 100% and the Activity [6] was 85%. It also gave an Activity [7] of 8.64%, an Activity [8] of 65% and an Activity [9] of 83%. The Activity [10] was 81%, the Activity [11] was 64% and the Activity [12] was “Non-Toxic”. The Activity [13] was “Active”, the Activity [14] was 79% and the Activity [15] was 94%. The Activity [16] was 73%, the Activity [17] was 64% and the Activity [18] was 12%. For the same compound, the Activity [19] was 62%, the Activity [20] was 99% and the Activity [21] was “Active”. The Activity [22] was 80%, the Activity [23] was 84% and the Activity [24] was “Active”. It also gave an Activity [25] of 78.2%, an Activity [26] of 83% and an Activity [27] of 8.72%. For the same compound, the Activity [28] was 85% and the Activity [29] was “Active”.
